# Reference: patent US20060148858A1, “1, 2-Azole derivatives with hypoglycemic and hypolipidemic activity” (priority 2002, published 2006)
row,Structure (SMILES),melting point
1,"O=C(O)Cc1ccc(OCCCc2cc(-c3ccc(C(F)(F)F)cc3)no2)cc1 [Example 1, [4-(3-{3-[4-(trifluoromethyl)phenyl]-5-isoxazolyl}propoxy)phenyl]acetic acid]",127 to 128 °C
2,"O=C(O)c1ccc(OCCCc2cc(-c3ccc(C(F)(F)F)cc3)no2)cc1 [Example 2, 4-(3-{3-[4-(trifluoromethyl)phenyl]-5-isoxazolyl}propoxy)benzoic acid]",221 to 222 °C
3,"O=C(O)Cc1cccc(OCCCc2cc(-c3ccc(C(F)(F)F)cc3)no2)c1 [Example 3, [3-(3-{3-[4-(trifluoromethyl)phenyl]-5-isoxazolyl}propoxy)phenyl]acetic acid]",126 to 127 °C
4,"O=C(O)c1cccc(OCCCc2cc(-c3ccc(C(F)(F)F)cc3)no2)c1 [Example 4, 3-(3-{3-[4-(trifluoromethyl)phenyl]-5-isoxazolyl}propoxy)benzoic acid]",133 to 134 °C
5,"O=C(O)CCc1ccc(OCCCc2cc(-c3ccc(C(F)(F)F)cc3)no2)cc1 [Example 5, 3-[4-(3-{3-[4-(trifluoromethyl)phenyl]-5-isoxazolyl}propoxy)phenyl]propionic acid]",174 to 175 °C
6,"O=C(O)c1ccccc1OCCCc1cc(-c2ccc(C(F)(F)F)cc2)no1 [Example 6, 2-(3-{3-[4-(trifluoromethyl)phenyl]-5-isoxazolyl}propoxy)benzoic acid]",132 to 133 °C
7,"Cn1nc(OCCCc2cc(-c3ccc(C(F)(F)F)cc3)no2)cc1C(=O)O [Example 7, 1-methyl-3-(3-{3-[4-(trifluoromethyl)phenyl]-5-isoxazolyl}propoxy)-1H-pyrazole-5-carboxylic acid]",162 to 163 °C
8,"O=C(O)c1cc(OCCCc2cc(-c3ccc(C(F)(F)F)cc3)no2)nn1-c1ccccc1 [Example 8, 1-phenyl-3-(3-{3-[4-(trifluoromethyl)phenyl]-5-isoxazolyl}propoxy)-1H-pyrazole-5-carboxylic acid]",145 to 146 °C
9,"Cc1nn(-c2ccc(C(F)(F)F)cn2)cc1COc1ccc(CCC(=O)O)cc1 [Example 9, 3-(4-{3-methyl-1-[5-(trifluoromethyl)-2-pyridyl]-1H-pyrazol-4-ylmethoxy}phenyl)propionic acid]",195 to 196 °C
10,"Cc1nn(-c2ccc(C(F)(F)F)cn2)cc1COc1ccc(OCC(=O)O)cc1 [Example 10, (4-{3-methyl-1-[5-(trifluoromethyl)-2-pyridyl]-1H-pyrazol-4-ylmethoxy}phenoxy)acetic acid]",138 to 139 °C
11,"O=C(O)CCc1cc(OCCCCc2cc(-c3ccc(C(F)(F)F)cc3)no2)nn1-c1ccccc1 [Example 11, 3-[1-phenyl-3-(4-{3-[4-(trifluoromethyl)phenyl]-5-isoxazolyl}butoxy)-1H-pyrazol-5-yl]propionic acid]",139 to 140 °C
12,"O=C(O)c1ccc(OCCCCc2cc(-c3ccc(C(F)(F)F)cc3)no2)cc1 [Example 12, 4-(4-{3-[4-(trifluoromethyl)phenyl]-5-isoxazolyl}butoxy)benzoic acid]",170 to 171 °C
13,"O=C(O)Cc1ccc(OCCCCc2cc(-c3ccc(C(F)(F)F)cc3)no2)cc1 [Example 13, [4-(4-{3-[4-(trifluoromethyl)phenyl]-5-isoxazolyl}butoxy)phenyl]acetic acid]",125 to 126 °C
14,"O=C(O)CCc1ccc(OCCCCc2cc(-c3ccc(C(F)(F)F)cc3)no2)cc1 [Example 14, 3-[4-(4-{3-[4-(trifluoromethyl)phenyl]-5-isoxazolyl}butoxy)phenyl]propionic acid]",130 to 131 °C
15,"CC(C)(Oc1ccc(OCCCCc2cc(-c3ccc(C(F)(F)F)cc3)no2)cc1)C(=O)O [Example 15, 2-methyl-2-[4-(4-{3-[4-(trifluoromethyl)phenyl]-5-isoxazolyl}butoxy)phenoxy]propionic acid]",103 to 104 °C
16,"O=C(O)Cc1cccc(OCCCCc2cc(-c3ccc(C(F)(F)F)cc3)no2)c1 [Example 16, [3-(4-{3-[4-(trifluoromethyl)phenyl]-5-isoxazolyl}butoxy)phenyl]acetic acid]",134 to 135 °C
17,"O=C(O)Cc1ccccc1OCCCCc1cc(-c2ccc(C(F)(F)F)cc2)no1 [Example 17, [2-(4-{3-[4-(trifluoromethyl)phenyl]-5-isoxazolyl}butoxy)phenyl]acetic acid]",122 to 123 °C
18,"CCOc1nn(-c2ccc(C(F)(F)F)cn2)cc1CCCOc1ccc(OC(C)(C)C(=O)O)cc1 [Example 18, 2-[4-(3-{3-ethoxy-1-[5-(trifluoromethyl)-2-pyridyl]-1H-pyrazol-4-yl}propoxy)phenoxy]-2-methylpropionic acid]",91 to 92 °C

row,Structure (SMILES),melting point
1,"CCOc1cc(OCc2cn(-c3ccc(C(F)(F)F)cn3)nc2C)ccc1CCC(=O)O [Example 19, 3-(2-ethoxy-4-{3-methyl-1-[5-(trifluoromethyl)-2-pyridyl]-1H-pyrazol-4-ylmethoxy}phenyl)propionic acid]",151 to 152 °C
2,"CCOc1cc(OCCCCc2cc(-c3ccc(C(F)(F)F)cc3)no2)ccc1CCC(=O)O [Example 21, 3-[2-ethoxy-4-(4-{3-[4-(trifluoromethyl)phenyl]-5-isoxazolyl}butoxy)phenyl]propionic acid]",105 to 106 °C
3,"CC(C)c1nn(-c2ccc(C(F)(F)F)cn2)cc1CCCOc1cccc(CCC(=O)O)c1 [Example 23, 3-[3-(3-{3-isopropyl-1-[5-(trifluoromethyl)-2-pyridyl]-1H-pyrazol-4-yl}propoxy)phenyl]propionic acid]",102 to 103 °C
4,"CC(C)c1nn(-c2ccc(C(F)(F)F)cn2)cc1CCCOc1cc(CCC(=O)O)n(C)n1 [Example 25, 3-[3-(3-{3-isopropyl-1-[5-(trifluoromethyl)-2-pyridyl]-1H-pyrazol-4-yl}propoxy)-1-methyl-1H-pyrazol-5-yl]propionic acid]",131 to 132 °C
5,"CC(C)c1nn(-c2ccc(C(F)(F)F)cn2)cc1COc1cc(CCC(=O)O)n(C)n1 [Example 27, 3-(3-{3-isopropyl-1-[5-(trifluoromethyl)-2-pyridyl]-1H-pyrazol-4-ylmethoxy}-1-methyl-1H-pyrazol-5-yl)propionic acid]",141 to 142 °C
6,"Cc1nn(-c2ccc(C(F)(F)F)cn2)cc1COc1cccc(OC(C)(C)C(=O)O)c1 [Example 32, 2-methyl-2-(3-{3-methyl-1-[5-(trifluoromethyl)-2-pyridyl]-1H-pyrazol-4-ylmethoxy}phenoxy)propionic acid]",152 to 153 °C
7,"CCOc1nn(-c2ccc(C(F)(F)F)cn2)cc1CCCOc1cccc(CCC(=O)O)c1 [Example 33, 3-[3-(3-{3-ethoxy-1-[5-(trifluoromethyl)-2-pyridyl]-1H-pyrazol-4-yl}propoxy)phenyl]propionic acid]",88 to 89 °C
8,"Cc1nn(-c2ccc(C(F)(F)F)cn2)cc1COc1cc(/C=C/C(=O)O)n(C)n1 [Example 37, (E)-3-(1-methyl-3-{3-methyl-1-[5-(trifluoromethyl)-2-pyridyl]-1H-pyrazol-4-ylmethoxy}-1H-pyrazol-5-yl)propenoic acid]",208 to 209 °C
9,"Cc1nn(-c2ccc(C(F)(F)F)cn2)cc1COc1cc(CCC(=O)O)n(C)n1 [Example 38, 3-(1-methyl-3-{3-methyl-1-[5-(trifluoromethyl)-2-pyridyl]-1H-pyrazol-4-ylmethoxy}-1H-pyrazol-5-yl)propionic acid]",154 to 155 °C
10,"CCCc1nn(-c2ccc(C(F)(F)F)cn2)cc1CCCOc1cc(CCC(=O)O)n(C)n1 [Example 45, 3-[1-methyl-3-(3-{3-propyl-1-[5-(trifluoromethyl)-2-pyridyl]-1H-pyrazol-4-yl}propoxy)-1H-pyrazol-5-yl]propionic acid]",80 to 81 °C
11,"CCCc1nn(-c2ccc(C(F)(F)F)cn2)cc1CCCOc1ccccc1CC(=O)O [Example 47, [2-(3-{3-propyl-1-[5-(trifluoromethyl)-2-pyridyl]-1H-pyrazol-4-yl}propoxy)phenyl]acetic acid]",100 to 101 °C
12,"CCOc1nn(-c2ccc(C(F)(F)F)cn2)cc1CCCOc1cc(CCC(=O)O)n(C)n1 [Example 48, 3-[3-(3-{3-ethoxy-1-[5-(trifluoromethyl)-2-pyridinyl]-1H-pyrazol-4-yl}propoxy)-1-methyl-1H-pyrazol-5-yl]propanoic acid]",137 to 138 °C
13,"CC(C)c1nn(-c2ccc(C(F)(F)F)cn2)cc1CCCCOc1cc(CCC(=O)O)n(C)n1 [Example 50, 3-[3-(4-{3-isopropyl-1-[5-(trifluoromethyl)-2-pyridinyl]-1H-pyrazol-4-yl}butoxy)-1-methyl-1H-pyrazol-5-yl]propanoic acid]",113 to 114 °C
14,"CC(C)c1nn(-c2ccc(C(F)(F)F)cn2)cc1CCCCOc1ccccc1CC(=O)O [Example 52, [2-(4-{3-isopropyl-1-[5-(trifluoromethyl)-2-pyridinyl]-1H-pyrazol-4-yl}butoxy)phenyl]acetic acid]",125 to 126 °C
15,"CC(C)c1nn(-c2ccc(C(F)(F)F)cn2)cc1CCCCOc1ccc(CC(=O)O)cc1 [Example 53, [4-(4-{3-isopropyl-1-[5-(trifluoromethyl)-2-pyridinyl]-1H-pyrazol-4-yl}butoxy)phenyl]acetic acid]",130 to 131 °C
16,"CC(C)c1nn(-c2ccc(C(F)(F)F)cn2)cc1CCCCOc1cccc(OC(C)(C)C(=O)O)c1 [Example 54, 2-[3-(4-{3-isopropyl-1-[5-(trifluoromethyl)-2-pyridinyl]-1H-pyrazol-4-yl}butoxy)phenoxy]-2-methylpropanoic acid]",81 to 82 °C
17,"CC(C)c1nn(-c2ccc(C(F)(F)F)cn2)cc1CCCCOc1ccc(CCC(=O)O)cc1 [Example 55, 3-[4-(4-{3-isopropyl-1-[5-(trifluoromethyl)-2-pyridinyl]-1H-pyrazol-4-yl}butoxy)phenyl]propanoic acid]",144 to 145 °C
18,"CCOc1nn(-c2ccc(C(F)(F)F)cn2)cc1CCOc1ccccc1CC(=O)O [Example 57, [2-(2-{3-ethoxy-1-[5-(trifluoromethyl)-2-pyridinyl]-1H-pyrazol-4-yl}ethoxy)phenyl]acetic acid]",134 to 135 °C
